Measurements from patent US6809115B2, “METHODS AND COMPOSITIONS FOR THE TREATMENT OF DIABETES, THE REDUCTION OF BODY FAT, IMPROVEMENT OF INSULIN SENSITIVITY, REDUCTION OF HYPERGLYCEMIA, AND REDUCTION OF HYPERCHOLESTEROLEMIA WITH CHROMIUM COMPLEXES, CONJUGATED FATTY ACIDS, AND/OR CONJUGATED FATTY ALCOHOLS” (Nutrition 21, Inc., priority 2000, dated 2004).

Legend:
[1] = patients treated for obesity; cited from earlier work
[2] = rats, oral CrCl3, co-administered NSAID; cited from earlier work
[3] = in vivo; cited from earlier work
[4] = cited from earlier work
[5] = growing animals; cited from earlier work
[6] = test system: human skeletal muscle culture; assay: glucose uptake in human skeletal muscle culture; assay type: cell-based; details: FIGS. 1 and 2, axis in pico Moles per milligram
From the text: FIG. 2 graphs the effect of CP+CLA on glucose uptake in human skeletal muscle culture.
FIG. 3 illustrates the effect of CP+CLA on glucose uptake in human skeletal muscle culture.
Embodiments of the present invention include compositions which contain a conjugated fatty acid or conjugated fatty alcohol in combination with at least one chromium complex. Additionally, uses of the compositions disclosed herein to treat diabetes and/or obesity are provided. The co-administration of a conjugated fatty acid or conjugated fatty alcohol and at least one chromium complex provides a number of advantages over conventional pharmaceutical regimes for the treatment of diabetes and promotion of weight loss. One advantage of the compositions described herein over conventional treatment regimes for diabetes (such as injection of insulin) and weight loss is that compositions comprising a conjugated compound such as a conjugated fatty acid or conjugated fatty alcohol and at least one chromium complex have no known side effects while still providing efficacy in glucose uptake and weight loss. […] Those bars on FIGS. 1, 2, and 3 representing Chromium Picolinate (CP) and Conjugated Linoleic Acid (CLA) are measured in nanograms per milliliter.

For `CC(C)CC(N(C)C)C1(c2ccc(Cl)cc2)CCC1` (stereo not drawn) [Sibutramine], the side effects [1] is listed as “increases blood pressure in a subset of patients”.
In the case of `CC(=O)Oc1ccccc1C(=O)O` [aspirin, acetylsalicylic acid], the chromium absorption [2] is given as “facilitated”.
In the case of `CCCCCCCCCCC[C@@H](C[C@@H]1OC(=O)[C@H]1CCCCCC)OC(=O)[C@H](CC(C)C)NC=O` [orlistat], the side effects [1] is given as “may have unpleasant gastrointestinal side effects”.
In the case of chromium picolinate, the “weight loss and body composition” value [3] is listed as “modest weight loss and changes in body composition”.
For conjugated linoleic acid [CLA], the “effect of CLA alone in obese subjects” value ([4]; added to standard diet and exercise) is listed as “no effect”, the fat mass ([4]; subgroup who did not follow diet and exercise well and gained lean body mass, placebo subjects had increase) is listed as “reduction in fat mass” and the “reduction of fat gain” value [5] is listed as 25%-70%. For the same compound, the glucose uptake ([6]; basal (without insulin)) was “no effect” and the glucose uptake ([6]; stimulated (with insulin)) was “no effect”.
